Where “and” joins values, the source holds several entries; their conditions need not be identical. Identical values can stand only once.
Experiments:
CfEcR-DEF mutant N119F = assay: GAL4-driven luciferase reporter assay in NIH3T3 cells; format: cell-based, Choristoneura fumiferana
Experimental: (§1) This construct was prepared in the same way as in switch 1.1 above except wild-type CfEcR-DEF was replaced with mutant CfEcR-DEF comprising a ligand binding domain comprising a substitution mutation selected from Table 1 below.
(§2) DNAs were transfected into mouse NIH3T3 cells (ATCC) as follows. Standard methods for culture and maintenance of the cells were followed. Cells were harvested and plated 96-well plates at 2,500 cells per well, in 50 μL of growth medium containing 10% fetal bovine serum (FBS). Twenty-four hours later, the cells were treated with 35 μL of serum-free growth medium containing either dimethylsulfoxide (DMSO; control) or a DMSO solution of ligand. The cells were then transfected using Superfect (Qiagen Inc.) transfection reagent. For each well, 0.625 μL of Superfect was mixed with 14.2 μL of serum-free growth medium. 0.16 μg of reporter construct and 0.04 μg of each receptor construct were added to the transfection reagent mix. The contents of the transfection mix were mixed in a vortex mixer and let stand at room temperature for 30 minutes. At the end of incubation, 15 μL of transfection mix was added to the cells. The cells were maintained at 37° C. and 5% CO2 for 48 hours in 5% FBS.
Reporter Assays: Cells were harvested 40 hours after adding ligands. 125 μL of passive lysis buffer (part of Dual-Luciferase reporter assay system from Promega Corporation) were added to each well of the […] plate. The plates were placed on a rotary shaker for 15 minutes. Twenty μL of lysate were assayed. Luciferase activity was measured using Dual-Luciferase reporter assay system from Promega Corporation following the manufacturer's instructions. Fold induction (FI) activities were calculated by dividing relative light units (“RLU”) in ligand treated cells with RLU in DMSO treated cells (untreated control).

CfEcR-DEF mutant A110P = CfEcR-DEF mutant A110P (Choristoneura fumiferana, UniProt O77255, A393P); assay: cell-based; conditions: for Emax: NIH3T3, 40 h, read-out: Rel Max FI
In short: (§3)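 Mouse NIH3T3 cells were treated with ligand in DMSO, then transfected with GAL4 luciferase reporter (0.16 μg/well) plus mutant CfEcR-DEF receptor constructs (0.04 μg each/well). Cells were kept at 37° C in 5% FBS and lysed 40 hours after ligand addition for dual-luciferase measurement. Fold induction = ligand RLU ÷ DMSO RLU.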

CfEcR-DEF mutant F48L = CfEcR-DEF mutant F48L (Choristoneura fumiferana, UniProt O77255, F331L); assay: cell-based; conditions: for Emax: NIH3T3, 40 h, read-out: Rel Max FI
In short: as §3

CfEcR-DEF mutant M125C = CfEcR-DEF mutant M125C (Choristoneura fumiferana, UniProt O77255, M408C); assay: cell-based; conditions: for EC50: EC50, mutant M125C; for Emax: NIH3T3, 40 h, read-out: Rel Max FI
In short: as §3

CfEcR-DEF mutant M125E = CfEcR-DEF mutant M125E (Choristoneura fumiferana, UniProt O77255, M408E); assay: cell-based; conditions: for Emax: NIH3T3, 40 h, read-out: Rel Max FI
In short: as §3

CfEcR-DEF mutant M125L = CfEcR-DEF mutant M125L (Choristoneura fumiferana, UniProt O77255, M408L); assay: cell-based; conditions: for Emax: NIH3T3, 40 h, read-out: Rel Max FI
In short: as §3

CfEcR-DEF mutant M125R = CfEcR-DEF mutant M125R (Choristoneura fumiferana, UniProt O77255, M408R); assay: cell-based; conditions: for Emax: NIH3T3, 40 h, read-out: Rel Max FI
In short: as §3

CfEcR-DEF mutant M92E = CfEcR-DEF mutant M92E (Choristoneura fumiferana, UniProt O77255, M375E); assay: cell-based; conditions: for Emax: NIH3T3, 40 h, read-out: Rel Max FI
In short: as §3

CfEcR-DEF mutant R95H = CfEcR-DEF mutant R95H (Choristoneura fumiferana, UniProt O77255, R378H); assay: cell-based; conditions: for Emax: NIH3T3, 40 h, read-out: Rel Max FI
In short: as §3

CfEcR-DEF mutant R95M = CfEcR-DEF mutant R95M (Choristoneura fumiferana, UniProt O77255, R378M); assay: cell-based; conditions: for Emax: NIH3T3, 40 h, read-out: Rel Max FI
In short: as §3

CfEcR-DEF mutant T52E = CfEcR-DEF mutant T52E (Choristoneura fumiferana, UniProt O77255, T335E); assay: cell-based; conditions: for Emax: NIH3T3, 40 h, read-out: Rel Max FI
In short: as §3

[1] = target: CfEcR-DEF mutant V107I/Y127E/A110P (Choristoneura fumiferana, UniProt O77255, A393P/V390I/Y410E); assay: cell-based; conditions: for Emax: NIH3T3, 40 h, read-out: Rel Max FI
In short: as §3

CfEcR-DEF mutant F48K = CfEcR-DEF mutant F48K (Choristoneura fumiferana, UniProt O77255, F331K); assay: GAL4-driven luciferase reporter assay in NIH3T3 cells; format: cell-based
In short: as §3

CfEcR-DEF mutant I51M = CfEcR-DEF mutant I51M (Choristoneura fumiferana, UniProt O77255, I334M); assay: as above; format: cell-based
In short: as §3

CfEcR-DEF mutant L223Y = CfEcR-DEF mutant L223Y (Choristoneura fumiferana, UniProt O77255, L506Y); assay: as above; format: cell-based
In short: as §3

CfEcR-DEF mutant L234R = CfEcR-DEF mutant L234R (Choristoneura fumiferana, UniProt O77255, L517R); assay: as above; format: cell-based
In short: as §3

CfEcR-DEF mutant M125N = CfEcR-DEF mutant M125N (Choristoneura fumiferana, UniProt O77255, M408N); assay: as above; format: cell-based
In short: as §3

CfEcR-DEF mutant M125V = CfEcR-DEF mutant M125V (Choristoneura fumiferana, UniProt O77255, M408V); assay: as above; format: cell-based
In short: as §3

CfEcR-DEF mutant T52Q = CfEcR-DEF mutant T52Q (Choristoneura fumiferana, UniProt O77255, T335Q); assay: as above; format: cell-based
In short: as §3

CfEcR-DEF mutant W238L = CfEcR-DEF mutant W238L (Choristoneura fumiferana, UniProt O77255, W521L); assay: as above; format: cell-based
In short: as §3

[2] = test system: CfEcR-DEF mutant V107I/Y127E; assay: as above; format: cell-based, Choristoneura fumiferana; parameters: Concentration (mM) at max FI: unit not given here
Experimental: as §1
as §2, with “The contents of the transfection mix were mixed in a vortex mixer and let stand at room temperature for 30 minutes. At the end of incubation, 15 μL of transfection mix was added to the cells. The cells were maintained at 37° C. and 5% CO2 for 48 hours in 5% FBS.” left out
Reporter Assays: Cells were harvested 40 hours after adding ligands. […] Luciferase activity was measured using Dual-Luciferase reporter assay system from Promega Corporation following the manufacturer's instructions. Fold induction (FI) activities were calculated by dividing relative light units (“RLU”) in ligand treated cells with RLU in DMSO treated cells (untreated control).

[3] = NIH3T3, mouse, 40 h, read-out: GS-E ligand max FI (relative to DMSO)
[4] = NIH3T3, 40 h, read-out: Rel Max FI

Sequence of CfEcR-DEF mutant T52E (O77255 entry or part of it T335E): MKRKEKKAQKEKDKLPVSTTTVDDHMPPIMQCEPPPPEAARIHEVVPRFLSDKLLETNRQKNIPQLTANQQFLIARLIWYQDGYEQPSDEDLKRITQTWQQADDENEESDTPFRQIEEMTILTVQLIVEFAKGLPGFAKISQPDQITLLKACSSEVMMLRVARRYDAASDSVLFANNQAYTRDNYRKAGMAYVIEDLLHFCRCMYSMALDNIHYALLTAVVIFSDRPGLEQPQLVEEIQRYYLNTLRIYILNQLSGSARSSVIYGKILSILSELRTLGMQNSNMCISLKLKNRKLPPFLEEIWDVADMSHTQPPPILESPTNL
Sequence of CfEcR-DEF mutant T52E (P28702 299-449, further chain): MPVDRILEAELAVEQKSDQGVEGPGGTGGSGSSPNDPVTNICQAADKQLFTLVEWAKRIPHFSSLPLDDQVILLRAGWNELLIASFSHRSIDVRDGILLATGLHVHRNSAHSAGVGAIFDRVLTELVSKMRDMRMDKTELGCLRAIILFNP
Sequence of CfEcR-DEF mutant M125C (O77255 entry or part of it M408C): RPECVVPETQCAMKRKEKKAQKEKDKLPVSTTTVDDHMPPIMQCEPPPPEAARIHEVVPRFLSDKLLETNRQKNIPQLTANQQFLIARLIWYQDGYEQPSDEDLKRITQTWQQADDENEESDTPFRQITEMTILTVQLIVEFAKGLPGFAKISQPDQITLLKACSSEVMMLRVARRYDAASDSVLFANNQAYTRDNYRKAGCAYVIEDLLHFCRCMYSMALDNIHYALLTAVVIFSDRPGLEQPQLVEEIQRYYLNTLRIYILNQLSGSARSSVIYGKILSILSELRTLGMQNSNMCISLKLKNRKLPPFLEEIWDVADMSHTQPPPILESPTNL
Sequence of CfEcR-DEF mutant M125C (P28702 299-449, further chain): as the sequence (P28702 299-449, further chain) above
Sequence of CfEcR-DEF mutant M125E (O77255 entry or part of it M408E): as the sequence (O77255 entry or part of it M408C) above, with C202E counted along it
Sequence of CfEcR-DEF mutant M125E (P28702 299-449, further chain): as the sequence (P28702 299-449, further chain) above
Sequence of CfEcR-DEF mutant A110P (O77255 entry or part of it A393P): as the sequence (O77255 entry or part of it M408C) above, with A187P, C202M counted along it
Sequence of CfEcR-DEF mutant A110P (P28702 299-449, stated change not applied, further chain): as the sequence (P28702 299-449, further chain) above
Sequence of CfEcR-DEF mutant V107I/Y127E/A110P (P28702 299-449, stated change not applied): as the sequence (P28702 299-449, further chain) above
Sequence of CfEcR-DEF mutant V107I/Y127E/A110P (O77255 entry or part of it V390I/A393P/Y410E): as the sequence (O77255 entry or part of it T335E) above, with E117T, V172I, A175P, Y192E counted along it
Sequence of CfEcR-DEF mutant F48L (P28702 299-449): as the sequence (P28702 299-449, further chain) above
Sequence of CfEcR-DEF mutant F48L (O77255 entry or part of it F331L): as the sequence (O77255 entry or part of it T335E) above, with F113L, E117T counted along it
Sequence of CfEcR-DEF mutant M125L (P28702 299-449): as the sequence (P28702 299-449, further chain) above
Sequence of CfEcR-DEF mutant M125L (O77255 entry or part of it M408L): as the sequence (O77255 entry or part of it T335E) above, with E117T, M190L counted along it
Sequence of CfEcR-DEF mutant R95M (P28702 299-449): as the sequence (P28702 299-449, further chain) above
Sequence of CfEcR-DEF mutant R95M (O77255 entry or part of it R378M): as the sequence (O77255 entry or part of it T335E) above, with E117T, R160M counted along it
Sequence of CfEcR-DEF mutant M125R (P28702 299-449): as the sequence (P28702 299-449, further chain) above
Sequence of CfEcR-DEF mutant M125R (O77255 entry or part of it M408R): as the sequence (O77255 entry or part of it T335E) above, with E117T, M190R counted along it

CCc1c(OC)cccc1C(=O)NN(C(=O)c1cc(C)cc(C)c1)C(C)(C)C [RG-102240, N-(2-ethyl-3-methoxybenzoyl)-N′-(3,5-dimethylbenzoyl)-N′-tert-butylhydrazine]
Fold increase over WT (CfEcR-DEF mutant N119F; 1.6 nM ligand): 1.22 | Fold increase over WT (CfEcR-DEF mutant N119F; 8 nM ligand): 0.73 | Fold increase over WT (CfEcR-DEF mutant N119F; 40 nM ligand): 0.06 | Fold increase over WT (CfEcR-DEF mutant N119F; 200 nM ligand): 0.01 | Fold increase over WT (CfEcR-DEF mutant N119F; 1 μM ligand): 0.08 | Fold increase over WT (CfEcR-DEF mutant N119F; 5 μM ligand): 0.59 | EC50 (CfEcR-DEF mutant A110P): 0.55 µM | Emax (CfEcR-DEF mutant A110P): 100% | maximal fold induction (CfEcR-DEF mutant A110P; [3]): 2290 | EC50 (CfEcR-DEF mutant F48L): 0.46 µM | Emax (CfEcR-DEF mutant F48L): 100% | maximal fold induction (CfEcR-DEF mutant F48L; [3]): 2600 | Concentration (mM) at max FI (CfEcR-DEF mutant F48L; mutant F48L, GS-E ligand): 0.0333 mM | EC50 (CfEcR-DEF mutant M125C): ~8 µM and > 33 µM | Emax (CfEcR-DEF mutant M125C): 100% | maximal fold induction (CfEcR-DEF mutant M125C; [3]): 9 | Concentration (mM) at max FI (CfEcR-DEF mutant M125C; mutant M125C, GS-E ligand): 33.3 mM | EC50 (CfEcR-DEF mutant M125E): ~2 µM | Emax (CfEcR-DEF mutant M125E): 100% | maximal fold induction (CfEcR-DEF mutant M125E; [3]): 1200 | Concentration at max FI (CfEcR-DEF mutant M125E; mutant M125E, GS-E ligand): 33.3 mM | EC50 (CfEcR-DEF mutant M125L): ~10 µM | Emax (CfEcR-DEF mutant M125L): 100% | maximal fold induction (CfEcR-DEF mutant M125L; [3]): 2250 | Concentration (mM) at max FI (CfEcR-DEF mutant M125L; mutant M125L, GS-E ligand): 0.0333 mM | EC50 (CfEcR-DEF mutant M125R): 3.7 µM | Emax (CfEcR-DEF mutant M125R): 0% | maximal fold induction (CfEcR-DEF mutant M125R; [3]): 2410 | Concentration (mM) at max FI (CfEcR-DEF mutant M125R; mutant M125R, GS-E ligand): 33.3 mM | EC50 (CfEcR-DEF mutant M92E): ~8 µM | Emax (CfEcR-DEF mutant M92E): 100% | maximal fold induction (CfEcR-DEF mutant M92E; [3]): 141 | Concentration (mM) at max FI (CfEcR-DEF mutant M92E; mutant M92E, GS-E ligand): 0.0333 mM | EC50 (CfEcR-DEF mutant R95H): 1.58 µM | Emax (CfEcR-DEF mutant R95H): 100% | maximal fold induction (CfEcR-DEF mutant R95H; [3]): 3410 | Concentration (mM) at max FI (CfEcR-DEF mutant R95H; mutant R95H, GS-E ligand): 33.30 mM | EC50 (CfEcR-DEF mutant R95M): 2.76 µM | Emax (CfEcR-DEF mutant R95M): 100% | maximal fold induction (CfEcR-DEF mutant R95M; [3]): 1690 | Concentration (mM) at max FI (CfEcR-DEF mutant R95M; mutant R95M, GS-E ligand): 33.30 mM | EC50 (CfEcR-DEF mutant T52E): ~7 µM | Emax (CfEcR-DEF mutant T52E): 100% | maximal fold induction (CfEcR-DEF mutant T52E; [3]): 1540 | Concentration (mM) at max FI (CfEcR-DEF mutant T52E; mutant T52E, GS-E ligand): 33.3 mM | EC50 [1]: 0.3 µM | Emax [1]: 100% | maximal fold induction [1, 3]: 2210 | Concentration (mM) at max FI ([1]; mutant V107I/Y127E/A110P, GS-E ligand): 10 mM | EC50 (CfEcR-DEF mutant F48K): 11.1 µM | Emax (CfEcR-DEF mutant F48K; [4]): 100% | EC50 (CfEcR-DEF mutant I51M): 3.94 µM | Emax (CfEcR-DEF mutant I51M; [4]): 100% | EC50 (CfEcR-DEF mutant L223Y): 3.15 µM | Emax (CfEcR-DEF mutant L223Y; [4]): 100% | EC50 (CfEcR-DEF mutant L234R): 17.1 µM | Emax (CfEcR-DEF mutant L234R; [4]): 100% | EC50 (CfEcR-DEF mutant M125N): 9.88 µM | Emax (CfEcR-DEF mutant M125N; [4]): 100% | EC50 (CfEcR-DEF mutant M125V): 1.64 µM | Emax (CfEcR-DEF mutant M125V; [4]): 100% | EC50 (CfEcR-DEF mutant T52Q): 2.95 µM | Emax (CfEcR-DEF mutant T52Q; [4]): 100% | EC50 (CfEcR-DEF mutant W238L): 11.1 µM | Emax (CfEcR-DEF mutant W238L; [4]): 100% | GS-E ligand max FI (relative to DMSO) [2]: 3146 | Concentration (mM) at max FI ([2]; GS-E ligand): 10

Cc1cc(C)cc(C(=O)N(NC(=O)c2cccc(C(C)C)c2C)C(C)(C)C)c1 [RG-102362, 3,5-Dimethyl-benzoic acid N-tert-butyl-N′-(3-isopropyl-2-methyl-benzoyl)-hydrazide]
EC50 (CfEcR-DEF mutant A110P): 0.77 µM | Emax (CfEcR-DEF mutant A110P): 64% | EC50 (CfEcR-DEF mutant F48L): 0.56 µM | Emax (CfEcR-DEF mutant F48L): 53% | EC50 (CfEcR-DEF mutant M125C): ≥ 33 µM | Emax (CfEcR-DEF mutant M125C): 15% | EC50 (CfEcR-DEF mutant M125E): 0.83 µM | Emax (CfEcR-DEF mutant M125E): 40% | EC50 (CfEcR-DEF mutant M125L): > 33 µM | Emax (CfEcR-DEF mutant M125L): 1% | EC50 (CfEcR-DEF mutant M125R): 10.4 µM | Emax (CfEcR-DEF mutant M125R): 0% | EC50 (CfEcR-DEF mutant M92E): > 33 µM | Emax (CfEcR-DEF mutant M92E): 4% | EC50 (CfEcR-DEF mutant R95H): 3.49 µM | Emax (CfEcR-DEF mutant R95H): 62% | EC50 (CfEcR-DEF mutant R95M): 4.28 µM | Emax (CfEcR-DEF mutant R95M): 27% | EC50 (CfEcR-DEF mutant T52E): 7.16 µM | Emax (CfEcR-DEF mutant T52E): 34% | EC50 [1]: 0.1 µM | Emax [1]: 63%

From patent publication US9163256B2, “Mutant receptors and their use in a nuclear receptor-based inducible gene expression system” (priority 2004, dated 2015)
